Experiments:
Assay in all cases: relative viability (nuclei count vs DMSO), 5 days (fraction); higher = more cells survive
Carfilzomib + Trametinib = compound: CC(C)C[C@H](NC(=O)[C@H](CCc1ccccc1)NC(=O)CN1CCOCC1)C(=O)N[C@@H](Cc1ccccc1)C(=O)N[C@@H](CC(C)C)C(=O)[C@@]1(C)CO1 [Carfilzomib] + CC(=O)Nc1cccc(-n2c(=O)n(C3CC3)c(=O)c3c(Nc4ccc(I)cc4F)n(C)c(=O)c(C)c32)c1 [Trametinib] (partner 0.02 µM)
Method in brief: (§1)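 Lung cancer cell lines in 1536-well plates got either a single drug or a fixed anchor-drug dose together with five library-drug doses (not always all listed) in √10 steps, by pin tool, on the day after seeding. Nuclei were counted after 5 days, and relative viability is the treated-to-vehicle ratio of nuclei counts. Values are medians of duplicate plates.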

Crizotinib + Pictilisib = compound: C[C@@H](Oc1cc(-c2cnn(C3CCNCC3)c2)cnc1N)c1c(Cl)ccc(F)c1Cl [Crizotinib] + CS(=O)(=O)N1CCN(Cc2cc3nc(-c4cccc5[nH]ncc45)nc(N4CCOCC4)c3s2)CC1 [Pictilisib] (partner 1 µM)
Method in brief: as §1

Carfilzomib + Foretinib = compound: CC(C)C[C@H](NC(=O)[C@H](CCc1ccccc1)NC(=O)CN1CCOCC1)C(=O)N[C@@H](Cc1ccccc1)C(=O)N[C@@H](CC(C)C)C(=O)[C@@]1(C)CO1 [Carfilzomib] + COc1cc2c(Oc3ccc(NC(=O)C4(C(=O)Nc5ccc(F)cc5)CC4)cc3F)ccnc2cc1OCCCN1CCOCC1 [Foretinib] (partner 0.25 µM)
Method in brief: as §1

Carfilzomib + AZD7762 = compound: CC(C)C[C@H](NC(=O)[C@H](CCc1ccccc1)NC(=O)CN1CCOCC1)C(=O)N[C@@H](Cc1ccccc1)C(=O)N[C@@H](CC(C)C)C(=O)[C@@]1(C)CO1 [Carfilzomib] + NC(=O)Nc1cc(-c2cccc(F)c2)sc1C(=O)N[C@H]1CCCNC1 [AZD7762] (partner 0.2 µM)
Method in brief: as §1

| Cell Line | relative viability (Carfilzomib + Trametinib; first compound 0.001 µM) | relative viability (Carfilzomib + Trametinib; first compound 0.003162 µM) | relative viability (Carfilzomib + Trametinib; first compound 0.01 µM) | relative viability (Carfilzomib + Trametinib; first compound 0.03162 µM) | relative viability (Carfilzomib + Trametinib; first compound 0.1 µM) | relative viability (Crizotinib + Pictilisib; first compound 0.01 µM) | relative viability (Crizotinib + Pictilisib; first compound 0.03162 µM) | relative viability (Crizotinib + Pictilisib; first compound 0.1 µM) | relative viability (Crizotinib + Pictilisib; first compound 0.3162 µM) | relative viability (Crizotinib + Pictilisib; first compound 1 µM) | relative viability (Carfilzomib + Foretinib; first compound 0.001 µM) | relative viability (Carfilzomib + Foretinib; first compound 0.003162 µM) | relative viability (Carfilzomib + Foretinib; first compound 0.01 µM) | relative viability (Carfilzomib + Foretinib; first compound 0.03162 µM) | relative viability (Carfilzomib + Foretinib; first compound 0.1 µM) | relative viability (Carfilzomib + AZD7762; first compound 0.003162 µM) | relative viability (Carfilzomib + AZD7762; first compound 0.01 µM) | relative viability (Carfilzomib + AZD7762; first compound 0.03162 µM) | relative viability (Carfilzomib + AZD7762; first compound 0.1 µM) |
| --- | --- | --- | --- | --- | --- | --- | --- | --- | --- | --- | --- | --- | --- | --- | --- | --- | --- | --- | --- |
| SK-LU-1 | 0.394 | 0.545 | 0.474 | 0.202 | 0.185 | 0.613 | 0.709 | 0.557 | 0.686 | 0.567 | 0.838 | 0.857 | 0.919 | 0.116 | 0.124 |  |  |  |  |
| SK-MES-1 | 0.545 | 0.536 | 0.549 | 0.44 | 0.201 | 0.402 | 0.311 | 0.35 | 0.299 | 0.333 | 0.851 | 0.954 | 0.918 | 0.97 | 0.283 |  |  |  |  |
| SW 900 |  | 0.804 | 0.163 | 0.177 | 0.126 |  |  |  |  |  | 1.01 | 0.999 | 0.315 | 0.0988 | 0.116 | 0.67 | 0.226 | 0.168 | 0.206 |
| SW 1573 | 0.55 | 0.626 | 0.55 | 0.0697 | 0.0572 | 0.424 | 0.525 | 0.558 | 0.459 | 0.52 | 0.934 | 1.27 | 0.884 | 0.725 | 0.0812 |  |  |  |  |
| UMC-11 | 0.32 | 0.739 | 0.657 | 0.703 | 0.322 | 0.753 | 0.854 | 0.803 | 0.161 | 0.785 | 0.996 | 1.05 | 1.06 | 0.944 | 0.299 |  |  |  |  |
